Assay results: ChEMBL document CHEMBL4507329, “Data for DCP probe BTZO-1” (2021)

Experiments:
[1] = molecular target: Serine/threonine-protein kinase MAK (Homo sapiens) (UniProt P20794); conditions: Compound concentration 1000.0 nM
[2] = molecular target: Mitotic checkpoint serine/threonine-protein kinase BUB1 (Homo sapiens) (UniProt O43683); conditions: Compound concentration 1000.0 nM
[3] = tested on: Mast/stem cell growth factor receptor Kit (Homo sapiens), P10721 [V559D,V654A]; conditions: Compound concentration 1000.0 nM
[4] = molecular target: Dual specificity protein kinase CLK4 (Homo sapiens) (UniProt Q9HAZ1); conditions: Compound concentration 1000.0 nM
[5] = molecular target: Serine/threonine-protein kinase N2 (Homo sapiens) (UniProt Q16513); conditions: Compound concentration 1000.0 nM
[6] = tested on: Receptor-type tyrosine-protein kinase FLT3 (Homo sapiens), P36888 [UNDEFINED MUTATION]; conditions: Compound concentration 1000.0 nM
[7] = molecular target: Myotonin-protein kinase (Homo sapiens) (UniProt Q09013); conditions: Compound concentration 1000.0 nM
[8] = molecular target: Serine/threonine-protein kinase haspin (Homo sapiens) (UniProt Q8TF76); conditions: Compound concentration 1000.0 nM
[9] = molecular target: Serine/threonine-protein kinase Nek10 (Homo sapiens) (UniProt Q6ZWH5); conditions: Compound concentration 1000.0 nM
[10] = tested on: Epidermal growth factor receptor (Homo sapiens), P00533 [UNDEFINED MUTATION]; conditions: Compound concentration 1000.0 nM
[11] = molecular target: Receptor-interacting serine/threonine-protein kinase 2 (Homo sapiens) (UniProt O43353); conditions: Compound concentration 1000.0 nM
[12] = molecular target: Mitogen-activated protein kinase kinase kinase kinase 5 (Homo sapiens) (UniProt Q9Y4K4); conditions: Compound concentration 1000.0 nM
[13] = molecular target: Misshapen-like kinase 1 (Homo sapiens) (UniProt Q8N4C8); conditions: Compound concentration 1000.0 nM
[14] = molecular target: Myosin light chain kinase (Homo sapiens) (UniProt Q32MK0); conditions: Compound concentration 1000.0 nM
[15] = tested on: Serine/threonine-protein kinase B-raf (Homo sapiens), P15056 [V600E]; conditions: Compound concentration 1000.0 nM
[16] = molecular target: Ribosomal protein S6 kinase alpha-6 (Homo sapiens) (UniProt Q9UK32); conditions: Compound concentration 1000.0 nM
[17] = molecular target: Fibroblast growth factor receptor 1 (Homo sapiens) (UniProt P11362); conditions: Compound concentration 1000.0 nM
[18] = tested on: Receptor-type tyrosine-protein kinase FLT3 (Homo sapiens), P36888 [R834Q]; conditions: Compound concentration 1000.0 nM
[19] = molecular target: Serine/threonine-protein kinase 36 (Homo sapiens) (UniProt Q9NRP7); conditions: Compound concentration 1000.0 nM
[20] = molecular target: Serine/threonine-protein kinase PAK 3 (Homo sapiens) (UniProt O75914); conditions: Compound concentration 1000.0 nM
[21] = molecular target: Tyrosine-protein kinase JAK3 (Homo sapiens) (UniProt P52333); conditions: Compound concentration 1000.0 nM
[22] = molecular target: Serine/threonine-protein kinase B-raf (Homo sapiens) (UniProt P15056); conditions: Compound concentration 1000.0 nM
[23] = molecular target: G protein-coupled receptor kinase 4 (Homo sapiens) (UniProt P32298); conditions: Compound concentration 1000.0 nM
[24] = molecular target: Mu-type opioid receptor (Homo sapiens) (UniProt P35372); conditions: Compound concentration 10.0 uM
[25] = molecular target: Serine/threonine-protein kinase ULK3 (Homo sapiens) (UniProt Q6PHR2); conditions: Compound concentration 1000.0 nM
[26] = molecular target: Serine/threonine-protein kinase Nek11 (Homo sapiens) (UniProt Q8NG66); conditions: Compound concentration 1000.0 nM
[27] = molecular target: Dual specificity mitogen-activated protein kinase kinase 7 (Homo sapiens) (UniProt O14733); conditions: Compound concentration 1000.0 nM
[28] = molecular target: Calcium/calmodulin-dependent protein kinase type II subunit gamma (Homo sapiens) (UniProt Q13555); conditions: Compound concentration 1000.0 nM
[29] = molecular target: Serine/threonine-protein kinase Nek9 (Homo sapiens) (UniProt Q8TD19); conditions: Compound concentration 1000.0 nM
[30] = molecular target: Protein kinase C iota type (Homo sapiens) (UniProt P41743); conditions: Compound concentration 1000.0 nM
Protein kinase C iota type (Homo sapiens), sequence (P41743 whole entry): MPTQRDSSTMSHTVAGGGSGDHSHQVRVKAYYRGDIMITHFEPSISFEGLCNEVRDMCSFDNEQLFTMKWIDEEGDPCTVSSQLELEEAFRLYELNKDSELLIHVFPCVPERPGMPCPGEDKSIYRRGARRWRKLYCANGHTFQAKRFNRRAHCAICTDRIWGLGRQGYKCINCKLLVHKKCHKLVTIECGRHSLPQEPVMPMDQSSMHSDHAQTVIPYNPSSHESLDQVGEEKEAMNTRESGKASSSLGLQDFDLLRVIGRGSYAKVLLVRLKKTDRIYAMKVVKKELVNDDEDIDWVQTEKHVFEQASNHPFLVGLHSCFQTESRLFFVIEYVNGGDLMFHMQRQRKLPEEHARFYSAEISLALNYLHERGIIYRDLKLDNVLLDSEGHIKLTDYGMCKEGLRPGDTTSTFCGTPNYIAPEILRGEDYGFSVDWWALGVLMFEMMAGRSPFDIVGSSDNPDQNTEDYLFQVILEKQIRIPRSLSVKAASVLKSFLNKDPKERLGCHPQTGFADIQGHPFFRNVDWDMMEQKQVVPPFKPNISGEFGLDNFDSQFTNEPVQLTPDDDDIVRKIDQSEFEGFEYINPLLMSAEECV

[31] = molecular target: Tyrosine-protein kinase Tec (Homo sapiens) (UniProt P42680); conditions: Compound concentration 1000.0 nM
[32] = molecular target: Protein-tyrosine kinase 6 (Homo sapiens) (UniProt Q13882); conditions: Compound concentration 1000.0 nM
Protein-tyrosine kinase 6 (Homo sapiens), sequence (Q13882 whole entry, looked up): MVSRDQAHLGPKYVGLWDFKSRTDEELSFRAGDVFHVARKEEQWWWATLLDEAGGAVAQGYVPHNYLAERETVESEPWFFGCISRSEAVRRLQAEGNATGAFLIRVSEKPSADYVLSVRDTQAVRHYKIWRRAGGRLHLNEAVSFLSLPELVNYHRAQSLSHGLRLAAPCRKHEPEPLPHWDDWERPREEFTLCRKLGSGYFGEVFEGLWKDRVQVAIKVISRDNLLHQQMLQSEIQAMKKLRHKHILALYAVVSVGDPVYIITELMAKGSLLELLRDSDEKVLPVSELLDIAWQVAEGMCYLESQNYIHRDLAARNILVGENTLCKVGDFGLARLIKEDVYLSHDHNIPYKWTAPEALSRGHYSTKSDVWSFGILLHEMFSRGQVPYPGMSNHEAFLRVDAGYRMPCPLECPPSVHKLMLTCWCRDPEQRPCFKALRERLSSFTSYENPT

[33] = molecular target: Serine/threonine-protein kinase Nek3 (Homo sapiens) (UniProt P51956); conditions: Compound concentration 1000.0 nM
[34] = molecular target: Dual specificity mitogen-activated protein kinase kinase 4 (Homo sapiens) (UniProt P45985); conditions: Compound concentration 1000.0 nM
Dual specificity mitogen-activated protein kinase kinase 4 (Homo sapiens), sequence (P45985 whole entry): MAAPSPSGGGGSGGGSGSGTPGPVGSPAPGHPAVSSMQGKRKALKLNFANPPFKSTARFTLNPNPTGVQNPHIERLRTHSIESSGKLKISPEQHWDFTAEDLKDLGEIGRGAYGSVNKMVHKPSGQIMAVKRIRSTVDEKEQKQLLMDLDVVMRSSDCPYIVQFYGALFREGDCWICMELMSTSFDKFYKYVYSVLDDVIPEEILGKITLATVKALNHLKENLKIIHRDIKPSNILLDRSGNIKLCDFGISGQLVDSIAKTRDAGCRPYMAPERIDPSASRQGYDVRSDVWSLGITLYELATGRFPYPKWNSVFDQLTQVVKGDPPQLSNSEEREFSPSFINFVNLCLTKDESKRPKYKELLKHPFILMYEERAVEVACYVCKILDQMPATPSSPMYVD

[35] = molecular target: Ribosomal protein S6 kinase alpha-5 (Homo sapiens) (UniProt O75582); conditions: Compound concentration 1000.0 nM
[36] = molecular target: Serine/threonine-protein kinase D2 (Homo sapiens) (UniProt Q9BZL6); conditions: Compound concentration 1000.0 nM
[37] = molecular target: Phosphatidylinositol 4-phosphate 3-kinase C2 domain-containing subunit beta (Homo sapiens) (UniProt O00750); conditions: Compound concentration 1000.0 nM
[38] = molecular target: Calcium/calmodulin-dependent protein kinase type 1G (Homo sapiens) (UniProt Q96NX5); conditions: Compound concentration 1000.0 nM
Calcium/calmodulin-dependent protein kinase type 1G (Homo sapiens), sequence (Q96NX5 whole entry): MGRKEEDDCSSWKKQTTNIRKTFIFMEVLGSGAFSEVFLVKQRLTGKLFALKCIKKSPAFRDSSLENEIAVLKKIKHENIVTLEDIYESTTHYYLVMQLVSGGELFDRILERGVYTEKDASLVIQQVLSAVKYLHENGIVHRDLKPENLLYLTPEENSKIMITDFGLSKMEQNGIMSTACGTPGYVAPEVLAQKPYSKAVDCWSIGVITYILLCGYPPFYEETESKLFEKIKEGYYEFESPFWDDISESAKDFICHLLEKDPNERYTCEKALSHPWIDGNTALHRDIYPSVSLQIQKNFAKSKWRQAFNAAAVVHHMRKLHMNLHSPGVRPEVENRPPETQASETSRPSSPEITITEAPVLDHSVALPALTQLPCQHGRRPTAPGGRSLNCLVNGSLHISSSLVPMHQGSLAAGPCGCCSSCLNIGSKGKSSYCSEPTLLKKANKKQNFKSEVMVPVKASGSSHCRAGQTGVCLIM

[39] = molecular target: Tyrosine-protein kinase HCK (Homo sapiens) (UniProt P08631); conditions: Compound concentration 1000.0 nM
[40] = molecular target: Tyrosine-protein kinase BTK (Homo sapiens) (UniProt Q06187); conditions: Compound concentration 1000.0 nM
Tyrosine-protein kinase BTK (Homo sapiens), sequence (Q06187 whole entry): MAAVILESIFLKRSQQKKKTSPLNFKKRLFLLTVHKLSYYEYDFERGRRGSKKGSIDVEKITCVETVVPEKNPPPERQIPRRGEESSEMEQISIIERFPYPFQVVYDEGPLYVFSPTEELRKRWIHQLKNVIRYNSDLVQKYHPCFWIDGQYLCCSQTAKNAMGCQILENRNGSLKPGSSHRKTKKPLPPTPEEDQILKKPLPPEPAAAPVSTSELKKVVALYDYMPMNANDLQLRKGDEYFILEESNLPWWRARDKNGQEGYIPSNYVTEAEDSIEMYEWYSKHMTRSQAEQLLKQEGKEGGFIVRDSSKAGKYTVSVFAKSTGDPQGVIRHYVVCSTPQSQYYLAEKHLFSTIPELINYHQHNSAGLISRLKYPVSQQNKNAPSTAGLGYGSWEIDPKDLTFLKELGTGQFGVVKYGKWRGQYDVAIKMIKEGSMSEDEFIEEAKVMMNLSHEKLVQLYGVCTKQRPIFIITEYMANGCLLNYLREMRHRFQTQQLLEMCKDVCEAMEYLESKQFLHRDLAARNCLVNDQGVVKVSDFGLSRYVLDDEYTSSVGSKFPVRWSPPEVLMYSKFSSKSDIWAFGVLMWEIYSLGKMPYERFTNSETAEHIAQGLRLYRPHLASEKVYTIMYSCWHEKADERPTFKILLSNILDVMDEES

[41] = molecular target: Megakaryocyte-associated tyrosine-protein kinase (Homo sapiens) (UniProt P42679); conditions: Compound concentration 1000.0 nM
[42] = molecular target: Serine/threonine-protein kinase D3 (Homo sapiens) (UniProt O94806); conditions: Compound concentration 1000.0 nM
Serine/threonine-protein kinase D3 (Homo sapiens), sequence (O94806 whole entry): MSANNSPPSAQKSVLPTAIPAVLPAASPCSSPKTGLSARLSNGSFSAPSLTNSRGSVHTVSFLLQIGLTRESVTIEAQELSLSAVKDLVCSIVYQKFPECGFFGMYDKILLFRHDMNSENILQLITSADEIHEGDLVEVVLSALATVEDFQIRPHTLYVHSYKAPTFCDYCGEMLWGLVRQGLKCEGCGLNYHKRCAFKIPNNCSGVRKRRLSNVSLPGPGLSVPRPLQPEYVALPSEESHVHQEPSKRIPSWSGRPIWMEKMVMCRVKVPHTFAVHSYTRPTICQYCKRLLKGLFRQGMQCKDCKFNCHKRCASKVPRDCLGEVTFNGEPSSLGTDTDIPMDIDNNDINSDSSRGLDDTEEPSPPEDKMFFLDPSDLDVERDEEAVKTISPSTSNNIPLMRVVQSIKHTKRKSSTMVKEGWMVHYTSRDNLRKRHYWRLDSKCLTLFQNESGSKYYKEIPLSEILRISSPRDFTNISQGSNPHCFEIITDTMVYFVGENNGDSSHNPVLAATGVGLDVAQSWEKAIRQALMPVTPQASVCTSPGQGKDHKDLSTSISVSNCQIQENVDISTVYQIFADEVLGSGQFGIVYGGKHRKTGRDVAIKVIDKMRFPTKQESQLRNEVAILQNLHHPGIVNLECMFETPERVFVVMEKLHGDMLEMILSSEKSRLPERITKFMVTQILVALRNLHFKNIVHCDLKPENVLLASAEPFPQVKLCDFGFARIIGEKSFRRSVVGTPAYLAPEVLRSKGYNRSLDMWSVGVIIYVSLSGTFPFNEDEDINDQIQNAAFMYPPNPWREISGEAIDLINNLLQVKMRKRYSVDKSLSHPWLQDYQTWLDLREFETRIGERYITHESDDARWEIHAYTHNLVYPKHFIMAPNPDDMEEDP

[43] = molecular target: 5-hydroxytryptamine receptor 2C (Homo sapiens) (UniProt P28335); conditions: Compound concentration 10.0 uM
5-hydroxytryptamine receptor 2C (Homo sapiens), sequence (P28335 whole entry): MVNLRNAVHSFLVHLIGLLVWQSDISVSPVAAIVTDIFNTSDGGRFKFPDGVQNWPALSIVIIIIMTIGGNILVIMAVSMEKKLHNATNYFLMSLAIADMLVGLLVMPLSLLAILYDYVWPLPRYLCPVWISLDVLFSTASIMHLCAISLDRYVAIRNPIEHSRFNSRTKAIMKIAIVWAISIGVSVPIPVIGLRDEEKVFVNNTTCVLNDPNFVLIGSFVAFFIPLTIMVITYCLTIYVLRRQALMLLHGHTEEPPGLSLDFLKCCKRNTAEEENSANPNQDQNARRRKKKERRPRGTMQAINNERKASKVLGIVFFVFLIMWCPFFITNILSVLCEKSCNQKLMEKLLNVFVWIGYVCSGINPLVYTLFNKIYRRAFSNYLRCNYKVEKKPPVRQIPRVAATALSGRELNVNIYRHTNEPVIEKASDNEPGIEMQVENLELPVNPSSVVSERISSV

[44] = molecular target: Aurora kinase B (Homo sapiens) (UniProt Q96GD4); conditions: Compound concentration 1000.0 nM
[45] = molecular target: Calcium/calmodulin-dependent protein kinase type II subunit alpha (Homo sapiens) (UniProt Q9UQM7); conditions: Compound concentration 1000.0 nM

Mitotic checkpoint serine/threonine-protein kinase BUB1 (Homo sapiens), sequence (O43683 whole entry, looked up): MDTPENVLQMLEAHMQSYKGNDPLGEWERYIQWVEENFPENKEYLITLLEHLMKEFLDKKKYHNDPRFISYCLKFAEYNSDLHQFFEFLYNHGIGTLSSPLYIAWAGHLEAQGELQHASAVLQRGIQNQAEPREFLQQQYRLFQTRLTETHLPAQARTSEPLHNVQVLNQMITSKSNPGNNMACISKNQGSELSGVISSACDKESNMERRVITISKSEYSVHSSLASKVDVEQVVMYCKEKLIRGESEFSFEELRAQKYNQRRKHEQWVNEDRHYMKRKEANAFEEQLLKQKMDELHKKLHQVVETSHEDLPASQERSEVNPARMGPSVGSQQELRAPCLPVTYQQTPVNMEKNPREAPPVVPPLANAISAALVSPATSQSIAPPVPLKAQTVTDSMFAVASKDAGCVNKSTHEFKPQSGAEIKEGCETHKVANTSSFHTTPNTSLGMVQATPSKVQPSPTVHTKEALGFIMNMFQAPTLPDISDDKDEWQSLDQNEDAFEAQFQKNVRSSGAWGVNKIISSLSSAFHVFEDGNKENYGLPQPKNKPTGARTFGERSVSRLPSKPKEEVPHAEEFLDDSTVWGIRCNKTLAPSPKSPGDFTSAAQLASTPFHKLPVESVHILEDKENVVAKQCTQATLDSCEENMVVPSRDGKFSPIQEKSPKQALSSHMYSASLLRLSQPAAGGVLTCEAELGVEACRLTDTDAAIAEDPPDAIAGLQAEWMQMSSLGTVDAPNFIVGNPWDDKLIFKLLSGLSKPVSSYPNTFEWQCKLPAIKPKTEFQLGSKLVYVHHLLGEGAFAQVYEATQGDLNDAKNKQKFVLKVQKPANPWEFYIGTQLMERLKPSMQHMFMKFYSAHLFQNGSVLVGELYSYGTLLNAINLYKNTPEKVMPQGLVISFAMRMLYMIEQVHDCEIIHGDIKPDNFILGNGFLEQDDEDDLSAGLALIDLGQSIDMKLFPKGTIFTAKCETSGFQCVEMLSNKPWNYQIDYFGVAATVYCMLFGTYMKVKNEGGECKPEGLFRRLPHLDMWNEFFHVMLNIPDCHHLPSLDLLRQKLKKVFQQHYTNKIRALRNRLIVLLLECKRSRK

O=C1NC(c2ccccn2)Sc2ccccc21 (stereo not given) [BTZO-4]
inactive: residual activity [1] 92% | residual activity [2] 100% | residual activity [3] 87% | residual activity [4] 97% | residual activity [5] 100% | residual activity [6] 83% | residual activity [7] 100% | residual activity [8] 100% | residual activity [9] 100% | residual activity [10] 86% | residual activity [11] 100% | residual activity [12] 100% | residual activity [13] 72% | residual activity [14] 100% | residual activity [15] 94% | residual activity [16] 96% | residual activity [17] 85% | residual activity [18] 81% | residual activity [19] 79% | residual activity [20] 83% | residual activity [21] 100% | residual activity [22] 90% | residual activity [23] 100% | inhibition [24] 6.47% | residual activity [25] 100% | residual activity [26] 95% | residual activity [27] 87% | residual activity [28] 98% | residual activity [29] 75% | residual activity [30] 72% | residual activity [31] 75% | residual activity [32] 100% | residual activity [33] 80% | residual activity [34] 93% | residual activity [35] 87% | residual activity [36] 96% | residual activity [37] 86% | residual activity [38] 100% | residual activity [39] 90% | residual activity [40] 74% | residual activity [41] 100% | residual activity [42] 100% | inhibition [43] 3.98% | residual activity [44] 100% | residual activity [45] 100%

O=c1nc(-c2ccccn2)sc2ccccc12 [BTZO-1]
inactive: residual activity [1] 89% | residual activity [2] 100% | residual activity [3] 100% | residual activity [4] 90% | residual activity [5] 100% | residual activity [6] 81% | residual activity [7] 100% | residual activity [8] 100% | residual activity [9] 100% | residual activity [10] 70% | residual activity [11] 82% | residual activity [12] 100% | residual activity [13] 83% | residual activity [14] 100% | residual activity [15] 100% | residual activity [16] 95% | residual activity [17] 100% | residual activity [18] 100% | residual activity [19] 82% | residual activity [20] 84% | residual activity [21] 100% | residual activity [22] 100% | residual activity [23] 100% | inhibition [24] 3.52% | residual activity [25] 100% | residual activity [26] 100% | residual activity [27] 93% | residual activity [28] 96% | residual activity [29] 96% | residual activity [30] 100% | residual activity [31] 82% | residual activity [32] 100% | residual activity [33] 72% | residual activity [34] 100% | residual activity [35] 88% | residual activity [36] 97% | residual activity [37] 83% | residual activity [38] 100% | residual activity [39] 94% | residual activity [40] 96% | residual activity [41] 100% | residual activity [42] 81% | inhibition [43] 12.2% | residual activity [44] 82% | residual activity [45] 100%
